# Earlier results in patent US20090136558A1, “Anti-Restenosis Coatings and Uses Thereof” (VASOTECH, INC., priority 2004, published 2009).
# Conditions: through specific binding to individual binding proteins
smiles,measurement,value
"CO[C@H]1C[C@@H]2CC[C@@H](C)[C@@](O)(O2)C(=O)C(=O)N2CCCC[C@H]2C(=O)O[C@H]([C@H](C)C[C@@H]2CC[C@@H](O)[C@H](OC)C2)CC(=O)[C@H](C)/C=C(\C)[C@@H](O)[C@@H](OC)C(=O)[C@H](C)C[C@H](C)/C=C/C=C/C=C/1C [sirolimus, Sirolimus]",retention in blood vessel wall after releasing from stent,retained well in blood vessel wall for up to three days
